# Measured values: patent US20250195478A1, “DUAL INHIBITORS OF VISTA AND PD-1 PATHWAYS” (Aurigene Oncology Limited, priority 2016, published 2025)
# Columns and labels:
# Recombinant mouse PD-L1 = target: T1, Recombinant mouse PD-L1 (Mus musculus, UniProt Q9EP73); assay: Rescue of mouse splenocyte proliferation in the presence of recombinant PD-L1 (CFSE proliferation assay); type: cell-based; settings: 100 nM compound; anti-CD3/CD28 stimulated mouse splenocytes + PD-L1; 72 h; stimulated splenocytes = 100%; read-out: PDL1 (rescue of proliferation @ 100 nM)
# T1 construct: Fc (Fc chimera); purchased R&D Systems 1019-B7-100
# T1 sequence (Q9EP73 19-238 limits assumed): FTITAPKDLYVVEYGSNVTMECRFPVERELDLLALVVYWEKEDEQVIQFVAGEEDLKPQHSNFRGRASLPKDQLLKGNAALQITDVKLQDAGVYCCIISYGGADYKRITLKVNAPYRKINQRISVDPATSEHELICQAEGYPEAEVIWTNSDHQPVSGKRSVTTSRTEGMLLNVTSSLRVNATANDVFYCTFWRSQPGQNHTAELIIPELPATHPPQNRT
# Protocol: Example 1: Rescue of Mouse Splenocyte Proliferation in the Presence of Recombinant PD-L1/PD-L2
# Recombinant mouse PD-L1 (rm-PDL-1, cat no: 1019-B7-100; R&D Systems) were used as the source of PD-L1.
# Mouse splenocytes harvested from 6-8 weeks old C57 BL6 mice; RPMI 1640 (GIBCO, Cat #11875); DMEM with high glucose (GIBCO, Cat #D6429); Fetal Bovine Serum [Hyclone, Cat #SH30071.03]; Penicillin (10000unit/mL)-Streptomycin (10,000 μg/mL) Liquid (GIBCO, Cat #15140-122); MEM Sodium Pyruvate solution 100 mM (100×), Liquid (GIBCO, Cat #11360); Nonessential amino acid (GIBCO, Cat #11140); L-Glutamine (GIBCO, Cat #25030); Anti-CD3 antibody (eBiosciences-16-0032); Anti-CD28 antibody (eBiosciences-16-0281); ACK lysis buffer (1mL) (GIBCO, Cat #-A10492); Histopaque (density-1.083 gm/mL) (SIGMA 10831); Trypan blue solution (SIGMA-T8154); 2 mL Norm Ject Luer Lock syringe-(Sigma 2014-12); 40 μm nylon cell strainer (BD FALCON 35230); Hemacytometer (Bright line-SIGMA Z359629); FACS Buffer (PBS/0.1% BSA): Phosphate Buffered Saline (PBS) pH 7.2 (HiMedia TS1006) with 0.1% Bovine Serum Albumin (BSA) (SIGMA A7050) and sodium azide (SIGMA 08591); 5 mM stock solution of CFSE: CFSE stock solution was prepared by diluting lyophilized CFSE with 180 μL of Dimethyl sulfoxide (DMSO C2H6SO, SIGMA-D-5879) and aliquoted in to tubes for further use. Working concentrations were titrated from 10 μM to 1 μM. (eBioscience-650850-85); 0.05% Trypsin and 0.02% EDTA (SIGMA 59417C); 96-well format ELISA plates (Corning CLS3390); BD FACS caliber (E6016);
# Recombinant mouse B7-H1/PDL1 Fc Chimera, (rm-PD-L1 cat no: 1019-B7-100).
# Splenocytes harvested in a 50 mL falcon tube by mashing mouse spleen in a 40 μm cell strainer were further treated with 1 mL ACK lysis buffer for 5 min at room temperature.
# After washing with 9 mL of RPMI complete media, cells were re-suspended in 3 mL of 1×PBS in a 15 mL tube. 3 mL of Histopaque was added carefully to the bottom of the tube without disturbing overlaying splenocyte suspension. After centrifuging at 800×g for 20 min at room temperature, the opaque layer of splenocytes was collected carefully without disturbing/mixing the layers. Splenocytes were washed twice with cold 1×PBS followed by total cell counting using Trypan Blue exclusion method and used further for cell based assays.
# Splenocytes were cultured in RPMI complete media (RPMI +10% fetal bovine serum+1 mM sodium pyruvate+10,000units/mL penicillin and 10,000 μg/mL streptomycin) and maintained in a CO2 incubator with 5% CO2 at 37° C.
# CFSE is a dye that passively diffuses into cells and binds to intracellular proteins. 1×10^6 cells/mL of harvested splenocytes were treated with 5 μM of CFSE in pre-warmed 1×PBS/0.1% BSA solution for 10 min at 37° C. Excess CFSE was quenched using 5 volumes of ice-cold culture media to the cells and incubated on ice for 5 min. CFSE labelled splenocytes were further given three washes with ice cold complete RPMI media. CFSE labelled 1×10^5 splenocytes added to wells containing either MDA-MB231 cells (1×10^5 cells cultured in high glucose DMEM medium) or recombinant […] PDL-1 (100 ng/mL) and test compounds. Splenocytes were stimulated with anti-mouse CD3 and anti-mouse CD28 antibody (lug/mL each), and the culture was further incubated for 72 h at 37° C. with 5% CO2. Cells were harvested and washed thrice with ice cold FACS buffer and % proliferation was analysed by flow cytometry with 488 nm excitation and 521 nm emission filters.
# Percent splenocyte proliferation was analysed using cell quest FACS program and percent rescue of splenocyte proliferation by compound was estimated after deduction of % background proliferation value and normalising to % stimulated splenocyte proliferation (positive control) as 100%.
# Stimulated splenocytes: Splenocytes+anti-CD3/CD28 stimulation
# Background proliferation: Splenocytes+anti-CD3/CD28+PD-L1
# Compound proliferation: Splenocytes+anti-CD3/CD28+PD-L1+Compound […]
# recombinant human VISTA = target: T2, recombinant human VISTA (Homo sapiens, UniProt Q9H7M9); assay: Human PBMC IFN-γ release assay in the presence of recombinant human VISTA; type: cell-based; settings: 100 nM compound, plate-coated VISTA + anti-CD3, anti-CD28, 72 h, ELISA
# T2 construct: Fc (Fc chimera); purchased R&D Systems 7126-B7
# T2 sequence (Q9H7M9 with tags, fused parts or gaps limits assumed): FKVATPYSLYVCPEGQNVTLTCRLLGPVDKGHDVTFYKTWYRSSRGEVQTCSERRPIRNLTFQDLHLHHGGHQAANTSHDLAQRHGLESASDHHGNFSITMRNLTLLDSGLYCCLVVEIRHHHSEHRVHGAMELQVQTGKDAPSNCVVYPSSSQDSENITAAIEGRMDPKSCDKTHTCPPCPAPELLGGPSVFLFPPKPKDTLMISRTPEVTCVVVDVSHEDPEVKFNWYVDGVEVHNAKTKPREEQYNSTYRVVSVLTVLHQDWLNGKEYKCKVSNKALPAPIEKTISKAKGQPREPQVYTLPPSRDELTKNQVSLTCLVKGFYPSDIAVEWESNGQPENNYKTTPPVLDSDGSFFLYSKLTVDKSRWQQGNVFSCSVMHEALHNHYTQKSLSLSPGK
# Protocol: Example 2: Rescue of Mouse Splenocyte Proliferation in the Presence of Recombinant VISTA
# Vehicle: Milli Q water; RPMI 1640 (GIBCO, Cat #11875); Fetal Bovine Serum [Hyclone, Cat #SH30071.03]; Penicilin (10000 unit/ml)-Streptomycin (10,000 μg/ml) liquid (GIBCO, Cat #15140-122); MEM Sodium Pyruvate solution 100 mM (100×), Liquid (GIBCO, Cat #11360); Nonessential amino acid (GIBCO, Cat #11140); L-Glutamine (GIBCO, Cat #25030); Recombinant human VISTA (rhGi24 VISTA/B7-H5 Fc chimera (R&D systems, cat no: 7126-B7); Anti-h/m Gi24/VISTA/B7-H5 purified mouse monoclonal IgG2B (R&D systems, cat no: MAB7126); Mouse IgG2B isotype control (R&D Systems cat no: MAB 004); Anti human-CD3 antibody (eBiosciences-16-0039); Anti human-CD28 antibody (eBiosciences-16-0289); Histopaque (density-1.077 gm/ml) (SIGMA 1077); Trypan Blue solution (SIGMA-T8154); Hemacytometer (Bright line-SIGMA Z359629); FACS Buffer containing Phosphate Buffered Saline (PBS) pH 7.2; (HiMedia TS1006) with 0.1% Bovine Serum Albumin (BSA) (SIGMA A7050) and sodium azide (SIGMA 08591); 96-well format ELISA plates (Corning 3599); 96-well format ELISA plates (Corning 3361); BD FACS caliber (E6016); Centrifuge (Eppendorf 5810 R); Human IFN-γ Duo set ELISA kit (R&D Systems; cat no: DY-285).
# 96-well cell culture plates were pre-coated with recombinant human VISTA (2.5 μg/ml) and anti-human CD3 (2.5 μg/ml), and stored at 4° C. overnight. Anti-human VISTA and isotype control antibodies were either coated along with the VISTA or incubated for 30 min next day before addition of cells. On the next day, plates were washed with 1×PBS and then incubated with test compounds for 30 min. Isolated PBMC (0.1×10^6 cells/well) and anti-human CD28 antibodies (lug/ml) were added to the wells. The culture was further incubated for 72 h at 37° C. with 5% CO2. After 72 h of incubation the cell culture supernatants were collected after brief centrifugation at 200 g×5 min at 4° C. and processed for human IFN-γ measurement by ELISA following manufacturer's protocol (R&D Systems; DY-285).
# In brief, 96-well ELISA plates were coated with 100 μl/well of capture antibody in coating buffer and incubated overnight at 4° C. Plates were washed five times with wash buffer and further blocked with 200 μl of 1× assay diluents for 1 hr at RT. Following wash step, 100 μl of cell culture supernatants were added to wells and further incubated for 2 hr at RT. Appropriate standards were also included. After wash step, plate was incubated for one hour with 100 μl/well of detection antibody. The wash step was repeated and the plate was incubated for 30 min with 100 μl/well of Avidin-HRP. The plate was washed four times with wash buffer and subsequently incubated for 15 min with 100 μl/well of substrate solution. 50 μl of stop solution was added to each well and the plate was read at 450 nm using Gen5 ver 2.05. Delta OD values were used for calculating the concentrations. The absorbance values were plotted against the standards and the concentration of IFN-γ was determined using GraphPad Prism software. Each experimental condition was carried out in triplicates.
# The percent rescue of IFN-γ release of the selected compounds of present invention are set forth below wherein “A” refers to compounds having more than 70% rescue of IFN-γ release, “B” refers to compounds having rescue of IFN-γ release ranges from 50% to 69.9% and “C” refers to compounds having less than 50% rescue of IFN-γ release.
activation at 0.1 µM (Recombinant mouse PD-L1),Structure (SMILES),VISTA (rescue of IFN γ release @ 100 nM) (recombinant human VISTA)
64%,CC(O)[C@H](NC(=O)N[C@@H](CC(N)=O)c1nc([C@H](N)CO)no1)C(=O)O (stereo partly shown) [Compound 21],A (more than 70% rescue of IFN-γ release)
83%,CC(O)[C@@H](NC(=O)N[C@H](CC(N)=O)c1nc([C@H](N)CO)no1)C(=O)O (stereo partly shown) [Compound 22],A (more than 70% rescue of IFN-γ release)
72%,CC(O)[C@@H](NC(=O)N[C@@H](CC(N)=O)c1nc([C@H](N)CO)no1)C(=O)O (stereo partly shown) [Compound 23],A (more than 70% rescue of IFN-γ release)
55%,CC(O)[C@H](NC(=O)N[C@H](CC(N)=O)c1nc([C@H](N)CO)no1)C(=O)O (stereo partly shown) [Compound 24],A (more than 70% rescue of IFN-γ release)

Structure (SMILES),activation at 0.1 µM (Recombinant mouse PD-L1),VISTA (rescue of IFN γ release @ 100 nM) (recombinant human VISTA)
CC(O)[C@H](NC(=O)N[C@@H](CC(N)=O)c1nc(C2(N)CCCCC2)no1)C(=O)O (stereo partly shown) [Compound 19],86%,B (rescue of IFN-γ release ranges from 50% to 69.9%)
